Measured values from ChEMBL document CHEMBL1201862, “PubChem BioAssay data set” (2004).
Activity calls are given as the source filed them.

How the values were obtained:
[1] = molecular target: Lysine-specific demethylase 4C (Homo sapiens, UniProt Q9H3R0); test: GASC-1 (JMJD2C) histone demethylase inhibitors, dose response, biochemical, DELFIA europium, cherry-picked samples (AID 488835); type: functional
Cytochrome P450 2C19 = Cytochrome P450 2C19 (Homo sapiens, UniProt P33261); test: Cytochrome panel assay with activity outcomes. Panel member name: p450-cyp2c19 Compounds with AC50 equal or less than 10 uM are considered active; type: functional; conditions: read-out: AC50
Chain of Cytochrome P450 2C19 (P33261 whole entry): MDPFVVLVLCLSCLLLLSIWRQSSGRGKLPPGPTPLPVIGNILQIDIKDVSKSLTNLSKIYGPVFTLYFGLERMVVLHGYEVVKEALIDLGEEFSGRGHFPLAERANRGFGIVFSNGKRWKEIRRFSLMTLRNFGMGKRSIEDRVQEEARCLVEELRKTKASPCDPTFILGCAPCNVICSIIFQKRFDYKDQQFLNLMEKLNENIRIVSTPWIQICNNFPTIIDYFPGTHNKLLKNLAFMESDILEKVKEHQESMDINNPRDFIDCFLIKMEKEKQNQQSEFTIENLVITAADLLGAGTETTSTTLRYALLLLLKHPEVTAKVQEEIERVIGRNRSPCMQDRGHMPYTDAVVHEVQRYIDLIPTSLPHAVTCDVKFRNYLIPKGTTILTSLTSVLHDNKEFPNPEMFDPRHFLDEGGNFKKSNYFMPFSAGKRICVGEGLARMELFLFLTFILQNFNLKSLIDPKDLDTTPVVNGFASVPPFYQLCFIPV

Cytochrome P450 2C9 = Cytochrome P450 2C9 (Homo sapiens, UniProt P11712)
Cytochrome P450 2D6 = Cytochrome P450 2D6 (Homo sapiens, UniProt P10635);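 also: CYP2D6 member of a cytochrome P450 panel assay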
Chain of Cytochrome P450 2D6 (P10635 whole entry): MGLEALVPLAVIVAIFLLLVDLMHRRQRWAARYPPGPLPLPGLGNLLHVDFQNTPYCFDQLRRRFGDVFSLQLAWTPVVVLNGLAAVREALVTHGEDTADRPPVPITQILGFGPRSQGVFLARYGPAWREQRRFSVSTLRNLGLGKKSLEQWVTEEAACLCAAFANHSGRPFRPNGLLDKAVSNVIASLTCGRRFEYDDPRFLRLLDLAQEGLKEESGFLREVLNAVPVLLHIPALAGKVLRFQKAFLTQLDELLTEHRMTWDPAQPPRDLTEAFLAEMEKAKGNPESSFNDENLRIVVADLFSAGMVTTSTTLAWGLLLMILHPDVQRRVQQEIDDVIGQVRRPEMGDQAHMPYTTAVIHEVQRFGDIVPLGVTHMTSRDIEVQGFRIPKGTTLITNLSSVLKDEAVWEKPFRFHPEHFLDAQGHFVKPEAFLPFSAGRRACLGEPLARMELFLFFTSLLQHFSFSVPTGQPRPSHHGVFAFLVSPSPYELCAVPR

[2] = NIH-3T3 fibroblast cytotoxicity, dose response, cytotoxicity control, cell-based, fluorescence, Alamar Blue, secondary assay (AID 2327); type: functional;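 also: NIH-3T3 mouse fibroblasts cultured with fluconazole at 8 µg/mL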
[3] = inhibitors of firefly luciferase expression or activity, dose response, H4 neuroglioma cells, luminescence (AID 1990); type: functional, cell-based
[4] = Luminescence Cell-Based Dose Response HTS to Identify Inhibitors of 5'UTR Stem-Loop Driven Prion Protein mRNA Translation in H4 Neuroglioblastoma Cells. [Related pubchem assays: 1827 (Project Summary), 1813 (Primary HTS)]; type: functional
[5] = inhibitors of SNCA 5'UTR-driven reporter translation, confirmation, H4 neuroglioma cells, luminescence (AID 1988); type: functional, cell-based
[6] = C. albicans growth with fluconazole, confirmation, fluorescence, retest (AID 2467); type: functional, cell-based
[7] = molecular target: Bifunctional protein GlmU (Mycobacterium tuberculosis, UniProt P9WMN3); test: Inhibitors of Mycobacterial Glucosamine-1-phosphate acetyl transferase (GlmU). Secondary screen.; design: species or system Mycobacterium tuberculosis H37Rv
[8] = molecular target: Induced myeloid leukemia cell differentiation protein Mcl-1 (Homo sapiens, UniProt Q07820); type: functional
[9] = molecular target: T1, Replicative DNA helicase DnaB (Mycobacterium tuberculosis, UniProt P9WMR3); test: DnaB intein splicing inhibitors, dose response, biochemical, cell-free fluorescence (AID 449749); type: functional
T1 sequence (P9WMR3 whole entry): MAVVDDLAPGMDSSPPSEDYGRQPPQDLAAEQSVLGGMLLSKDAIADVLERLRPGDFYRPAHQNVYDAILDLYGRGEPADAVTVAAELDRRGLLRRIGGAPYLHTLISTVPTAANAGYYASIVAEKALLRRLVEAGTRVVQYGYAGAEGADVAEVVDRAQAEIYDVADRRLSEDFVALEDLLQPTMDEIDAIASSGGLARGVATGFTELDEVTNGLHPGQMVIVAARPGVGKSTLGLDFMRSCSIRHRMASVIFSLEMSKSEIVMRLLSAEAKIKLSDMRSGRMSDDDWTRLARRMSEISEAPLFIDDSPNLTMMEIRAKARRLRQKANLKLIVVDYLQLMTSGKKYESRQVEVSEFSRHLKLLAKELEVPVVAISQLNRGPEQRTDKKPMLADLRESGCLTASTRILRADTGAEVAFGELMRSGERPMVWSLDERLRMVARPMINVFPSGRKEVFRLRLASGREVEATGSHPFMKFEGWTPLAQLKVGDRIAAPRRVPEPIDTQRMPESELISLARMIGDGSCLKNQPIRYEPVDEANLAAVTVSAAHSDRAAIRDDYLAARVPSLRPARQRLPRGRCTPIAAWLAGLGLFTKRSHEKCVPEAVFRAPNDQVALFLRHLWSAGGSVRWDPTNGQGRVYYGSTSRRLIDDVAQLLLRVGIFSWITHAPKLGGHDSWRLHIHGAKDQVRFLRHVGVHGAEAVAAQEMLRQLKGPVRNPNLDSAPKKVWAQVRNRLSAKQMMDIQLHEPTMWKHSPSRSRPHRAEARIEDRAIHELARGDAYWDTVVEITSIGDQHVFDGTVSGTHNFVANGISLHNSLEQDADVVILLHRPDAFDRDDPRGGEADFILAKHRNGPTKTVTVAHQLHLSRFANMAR

Protein RecA = molecular target: T2, Protein RecA (Mycobacterium tuberculosis, UniProt P9WHJ3); test: Fluorescence Cell-Free Homogeneous Dose Retest to Identify Inhibitors of RecA-Intein Splicing Activity. [Related pubchem assays (depositor defined):AID2097, AID2223, AID489010, AID492950]; type: functional
T2 sequence (P9WHJ3 whole entry): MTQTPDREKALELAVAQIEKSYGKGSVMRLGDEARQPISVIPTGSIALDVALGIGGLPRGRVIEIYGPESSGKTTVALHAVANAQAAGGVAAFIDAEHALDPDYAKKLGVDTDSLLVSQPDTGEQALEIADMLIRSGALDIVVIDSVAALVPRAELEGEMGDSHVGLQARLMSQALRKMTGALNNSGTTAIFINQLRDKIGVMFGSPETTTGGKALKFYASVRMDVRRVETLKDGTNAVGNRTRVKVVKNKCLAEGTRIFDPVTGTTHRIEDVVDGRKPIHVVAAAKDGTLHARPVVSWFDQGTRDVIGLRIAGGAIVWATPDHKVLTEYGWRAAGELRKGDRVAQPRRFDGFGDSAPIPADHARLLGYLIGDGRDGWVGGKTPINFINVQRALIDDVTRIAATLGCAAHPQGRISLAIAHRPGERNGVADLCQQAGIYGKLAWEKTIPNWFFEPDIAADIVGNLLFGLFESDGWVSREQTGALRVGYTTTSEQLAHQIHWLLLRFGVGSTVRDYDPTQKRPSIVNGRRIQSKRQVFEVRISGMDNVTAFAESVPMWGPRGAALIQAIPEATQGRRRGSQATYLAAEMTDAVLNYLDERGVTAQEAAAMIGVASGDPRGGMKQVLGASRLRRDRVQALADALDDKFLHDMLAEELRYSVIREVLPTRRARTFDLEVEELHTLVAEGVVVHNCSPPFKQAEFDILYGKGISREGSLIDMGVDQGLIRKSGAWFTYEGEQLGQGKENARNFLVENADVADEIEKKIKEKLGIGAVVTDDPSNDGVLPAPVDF

INS1 = test: beta cell apoptosis inhibitors, cytokine rescue, dose response, luminescence, retest (AID 449756); type: functional, cell-based; conditions: Rattus norvegicus;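 also: cell death triggered by IL-1 beta plus TNF-alpha plus IFN-gamma mixture; protective hits raise ATP signal compared with cytokine alone wells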
Caspase-6 = molecular target: T3, Caspase-6 (Homo sapiens, UniProt P55212); test: human caspase-6 inhibitors, dose response, biochemical, VEID-R110 fluorescence, cherry-pick (AID 720632)
T3 sequence (P55212 whole entry): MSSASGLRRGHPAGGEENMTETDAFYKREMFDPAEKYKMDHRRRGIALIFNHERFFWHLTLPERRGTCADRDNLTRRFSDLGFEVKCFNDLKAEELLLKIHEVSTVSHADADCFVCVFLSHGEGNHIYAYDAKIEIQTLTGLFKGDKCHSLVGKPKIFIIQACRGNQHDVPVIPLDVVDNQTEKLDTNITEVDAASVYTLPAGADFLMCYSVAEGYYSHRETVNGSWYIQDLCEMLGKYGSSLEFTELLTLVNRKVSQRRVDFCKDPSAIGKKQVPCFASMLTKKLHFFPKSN

cells [10] = type: functional, cell-based
cells [11] = type: functional, cell-based; remark: listed apart in the source
Exodeoxyribonuclease V = Exodeoxyribonuclease V (Escherichia coli (strain K12), UniProt P04993+P07648+P08394); test: E. coli RecBCD inhibitors, dose response, counter-screen for AddAB inhibitor project, absorbance, V66 E. coli, mutant T4 phage (AID 492957); type: functional, cell-based, Escherichia coli str. K-12 substr. MG1655
Chain of Exodeoxyribonuclease V (P04993 whole entry): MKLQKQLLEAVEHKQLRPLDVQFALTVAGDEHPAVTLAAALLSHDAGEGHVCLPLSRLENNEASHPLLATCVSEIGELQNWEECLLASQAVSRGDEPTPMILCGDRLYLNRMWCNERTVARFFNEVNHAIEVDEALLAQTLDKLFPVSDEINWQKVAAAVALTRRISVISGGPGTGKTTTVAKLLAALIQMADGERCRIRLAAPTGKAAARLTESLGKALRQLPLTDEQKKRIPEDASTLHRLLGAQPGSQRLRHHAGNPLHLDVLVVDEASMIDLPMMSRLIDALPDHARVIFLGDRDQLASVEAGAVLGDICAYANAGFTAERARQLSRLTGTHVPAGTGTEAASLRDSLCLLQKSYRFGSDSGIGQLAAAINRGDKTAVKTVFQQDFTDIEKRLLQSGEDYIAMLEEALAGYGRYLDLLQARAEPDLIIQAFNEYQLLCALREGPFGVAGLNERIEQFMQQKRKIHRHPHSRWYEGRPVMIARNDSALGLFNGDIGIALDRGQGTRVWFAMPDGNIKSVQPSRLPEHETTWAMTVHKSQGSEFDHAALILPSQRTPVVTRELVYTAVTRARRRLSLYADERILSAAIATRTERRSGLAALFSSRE
Chain of Exodeoxyribonuclease V (P07648 whole entry): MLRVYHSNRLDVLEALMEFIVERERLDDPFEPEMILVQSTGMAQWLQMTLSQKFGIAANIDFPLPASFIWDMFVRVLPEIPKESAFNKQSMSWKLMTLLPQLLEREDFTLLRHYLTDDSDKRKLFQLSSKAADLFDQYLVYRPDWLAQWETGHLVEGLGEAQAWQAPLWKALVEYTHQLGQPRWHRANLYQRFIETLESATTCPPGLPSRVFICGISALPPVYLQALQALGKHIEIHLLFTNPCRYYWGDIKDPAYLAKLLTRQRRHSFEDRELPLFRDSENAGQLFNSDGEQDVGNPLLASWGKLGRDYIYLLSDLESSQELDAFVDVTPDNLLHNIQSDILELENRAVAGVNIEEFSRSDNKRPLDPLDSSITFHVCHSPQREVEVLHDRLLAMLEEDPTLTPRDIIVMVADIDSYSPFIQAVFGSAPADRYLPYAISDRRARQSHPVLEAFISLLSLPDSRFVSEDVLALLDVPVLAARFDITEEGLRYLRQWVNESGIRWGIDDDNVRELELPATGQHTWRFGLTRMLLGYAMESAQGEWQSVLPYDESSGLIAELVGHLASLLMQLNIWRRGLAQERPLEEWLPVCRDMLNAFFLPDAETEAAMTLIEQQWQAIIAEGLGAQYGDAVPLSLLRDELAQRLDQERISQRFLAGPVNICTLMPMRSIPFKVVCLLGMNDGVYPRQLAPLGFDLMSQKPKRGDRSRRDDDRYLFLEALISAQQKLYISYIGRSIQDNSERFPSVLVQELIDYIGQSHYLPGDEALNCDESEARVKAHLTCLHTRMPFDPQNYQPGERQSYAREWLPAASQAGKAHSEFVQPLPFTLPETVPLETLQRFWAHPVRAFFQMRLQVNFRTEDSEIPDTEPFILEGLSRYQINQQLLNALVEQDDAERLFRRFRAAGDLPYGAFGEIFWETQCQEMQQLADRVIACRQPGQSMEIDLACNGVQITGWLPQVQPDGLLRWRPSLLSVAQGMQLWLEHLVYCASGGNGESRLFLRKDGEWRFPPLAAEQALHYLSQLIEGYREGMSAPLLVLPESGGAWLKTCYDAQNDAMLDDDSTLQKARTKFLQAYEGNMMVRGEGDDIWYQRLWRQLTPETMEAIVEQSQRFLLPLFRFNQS
Chain of Exodeoxyribonuclease V (P08394 whole entry): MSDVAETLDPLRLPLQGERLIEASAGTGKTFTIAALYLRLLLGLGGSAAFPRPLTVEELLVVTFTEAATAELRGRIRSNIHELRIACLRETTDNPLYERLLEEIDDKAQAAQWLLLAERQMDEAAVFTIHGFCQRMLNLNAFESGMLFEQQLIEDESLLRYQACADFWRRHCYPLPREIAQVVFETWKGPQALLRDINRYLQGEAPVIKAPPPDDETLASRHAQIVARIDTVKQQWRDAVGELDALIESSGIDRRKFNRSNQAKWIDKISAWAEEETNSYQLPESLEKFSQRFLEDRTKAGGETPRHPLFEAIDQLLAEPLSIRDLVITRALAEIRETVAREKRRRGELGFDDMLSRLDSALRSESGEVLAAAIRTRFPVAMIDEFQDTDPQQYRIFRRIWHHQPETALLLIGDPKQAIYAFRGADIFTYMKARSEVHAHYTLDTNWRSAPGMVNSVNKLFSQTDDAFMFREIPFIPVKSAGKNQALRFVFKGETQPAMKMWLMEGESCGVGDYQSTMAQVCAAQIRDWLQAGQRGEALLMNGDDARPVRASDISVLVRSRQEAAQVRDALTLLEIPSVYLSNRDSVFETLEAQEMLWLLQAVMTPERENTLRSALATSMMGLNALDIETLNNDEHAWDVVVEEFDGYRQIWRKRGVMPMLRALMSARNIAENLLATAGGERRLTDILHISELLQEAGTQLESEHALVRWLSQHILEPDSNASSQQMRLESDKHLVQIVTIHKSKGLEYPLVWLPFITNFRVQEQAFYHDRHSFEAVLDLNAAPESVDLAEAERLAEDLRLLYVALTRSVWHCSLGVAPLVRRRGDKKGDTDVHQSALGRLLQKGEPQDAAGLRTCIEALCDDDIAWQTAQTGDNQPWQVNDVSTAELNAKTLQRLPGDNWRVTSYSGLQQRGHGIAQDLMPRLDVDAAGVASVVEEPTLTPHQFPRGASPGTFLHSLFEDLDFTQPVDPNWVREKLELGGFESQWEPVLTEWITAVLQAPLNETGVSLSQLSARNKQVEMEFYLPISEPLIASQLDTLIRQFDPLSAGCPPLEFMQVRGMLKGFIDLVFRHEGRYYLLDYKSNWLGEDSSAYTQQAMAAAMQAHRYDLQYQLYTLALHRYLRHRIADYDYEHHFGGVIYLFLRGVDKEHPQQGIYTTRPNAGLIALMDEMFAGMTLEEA

[12] = Counterscreen for AddAB inhibitors: absorbance-based bacterial cell-based high throughput dose response assay for inhibitors of bacterial viability. [Related pubchem assays (depositor defined):AID435030, AID449728, AID449731, AID488942, AID488955, AID488956]; type: functional
Galanin receptor type 3 = Galanin receptor type 3 (Homo sapiens, UniProt O60755); test: Fluorescence-based cell-based primary high throughput dose response assay to identify antagonists of the Galanin Receptor 3 (GalR3).; type: functional
cells [13] = type: functional, cell-based; conditions: HEK-CNG
Cytochrome P450 1A2 = molecular target: T4, Cytochrome P450 1A2 (Homo sapiens, UniProt P05177);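 also: PubChem cytochrome P450 panel assay, CYP1A2 panel member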
T4 sequence (P05177 whole entry): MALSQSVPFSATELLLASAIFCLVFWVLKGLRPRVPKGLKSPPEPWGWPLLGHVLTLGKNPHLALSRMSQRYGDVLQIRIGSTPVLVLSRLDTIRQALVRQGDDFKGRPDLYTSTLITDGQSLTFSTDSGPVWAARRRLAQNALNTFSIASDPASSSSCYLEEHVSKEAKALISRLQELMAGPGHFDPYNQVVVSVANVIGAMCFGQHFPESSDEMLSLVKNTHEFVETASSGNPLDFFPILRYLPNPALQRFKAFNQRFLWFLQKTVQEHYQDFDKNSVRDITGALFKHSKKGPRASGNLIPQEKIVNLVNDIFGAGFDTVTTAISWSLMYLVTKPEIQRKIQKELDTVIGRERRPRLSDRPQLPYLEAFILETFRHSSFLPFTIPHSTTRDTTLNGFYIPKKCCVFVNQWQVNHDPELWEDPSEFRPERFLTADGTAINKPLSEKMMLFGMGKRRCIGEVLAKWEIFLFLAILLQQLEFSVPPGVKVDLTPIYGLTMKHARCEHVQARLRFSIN

[14] = A cytotoxicity screen of small molecule inhibitors of the PhoP region in Salmonella typhi identified in the primary screen. [Related pubchem assays: 1850, 1864, 1985 ]; type: functional
[15] = molecular target: T5, Apoptotic protease-activating factor 1 (Homo sapiens, UniProt O14727); type: functional
T5 sequence (O14727 whole entry): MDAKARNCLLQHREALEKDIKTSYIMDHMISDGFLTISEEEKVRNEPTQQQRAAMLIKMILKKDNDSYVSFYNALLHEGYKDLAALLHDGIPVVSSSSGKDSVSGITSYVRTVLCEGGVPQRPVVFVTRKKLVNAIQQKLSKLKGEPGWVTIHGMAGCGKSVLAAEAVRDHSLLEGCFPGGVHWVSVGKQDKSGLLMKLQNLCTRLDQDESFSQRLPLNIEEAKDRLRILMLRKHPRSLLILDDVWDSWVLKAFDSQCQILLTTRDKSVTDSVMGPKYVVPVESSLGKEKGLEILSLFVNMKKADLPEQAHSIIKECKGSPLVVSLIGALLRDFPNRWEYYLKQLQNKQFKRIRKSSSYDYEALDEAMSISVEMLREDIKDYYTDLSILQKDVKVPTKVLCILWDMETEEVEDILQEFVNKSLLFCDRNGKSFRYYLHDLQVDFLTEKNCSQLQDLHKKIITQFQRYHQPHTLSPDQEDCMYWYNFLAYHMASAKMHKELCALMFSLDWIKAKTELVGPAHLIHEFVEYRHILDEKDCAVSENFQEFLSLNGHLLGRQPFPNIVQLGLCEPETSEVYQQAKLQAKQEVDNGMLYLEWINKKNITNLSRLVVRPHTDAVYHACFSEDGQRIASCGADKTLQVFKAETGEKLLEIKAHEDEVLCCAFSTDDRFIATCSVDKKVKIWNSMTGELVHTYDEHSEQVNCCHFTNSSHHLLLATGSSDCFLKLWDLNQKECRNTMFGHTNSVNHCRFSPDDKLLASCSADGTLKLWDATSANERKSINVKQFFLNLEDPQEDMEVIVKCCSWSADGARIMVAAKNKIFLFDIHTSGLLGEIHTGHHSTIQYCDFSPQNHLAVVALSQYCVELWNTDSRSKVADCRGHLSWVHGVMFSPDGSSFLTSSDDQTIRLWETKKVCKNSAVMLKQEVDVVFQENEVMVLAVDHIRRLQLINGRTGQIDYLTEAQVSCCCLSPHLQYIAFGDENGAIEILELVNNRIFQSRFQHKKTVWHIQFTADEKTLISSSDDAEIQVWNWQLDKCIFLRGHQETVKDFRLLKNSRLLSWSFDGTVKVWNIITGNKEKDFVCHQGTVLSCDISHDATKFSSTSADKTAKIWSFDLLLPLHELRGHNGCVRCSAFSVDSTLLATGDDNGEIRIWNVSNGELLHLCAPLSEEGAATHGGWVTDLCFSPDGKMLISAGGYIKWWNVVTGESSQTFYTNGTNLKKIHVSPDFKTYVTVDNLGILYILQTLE

Chain of Lysine-specific demethylase 4C (Q9H3R0 whole entry): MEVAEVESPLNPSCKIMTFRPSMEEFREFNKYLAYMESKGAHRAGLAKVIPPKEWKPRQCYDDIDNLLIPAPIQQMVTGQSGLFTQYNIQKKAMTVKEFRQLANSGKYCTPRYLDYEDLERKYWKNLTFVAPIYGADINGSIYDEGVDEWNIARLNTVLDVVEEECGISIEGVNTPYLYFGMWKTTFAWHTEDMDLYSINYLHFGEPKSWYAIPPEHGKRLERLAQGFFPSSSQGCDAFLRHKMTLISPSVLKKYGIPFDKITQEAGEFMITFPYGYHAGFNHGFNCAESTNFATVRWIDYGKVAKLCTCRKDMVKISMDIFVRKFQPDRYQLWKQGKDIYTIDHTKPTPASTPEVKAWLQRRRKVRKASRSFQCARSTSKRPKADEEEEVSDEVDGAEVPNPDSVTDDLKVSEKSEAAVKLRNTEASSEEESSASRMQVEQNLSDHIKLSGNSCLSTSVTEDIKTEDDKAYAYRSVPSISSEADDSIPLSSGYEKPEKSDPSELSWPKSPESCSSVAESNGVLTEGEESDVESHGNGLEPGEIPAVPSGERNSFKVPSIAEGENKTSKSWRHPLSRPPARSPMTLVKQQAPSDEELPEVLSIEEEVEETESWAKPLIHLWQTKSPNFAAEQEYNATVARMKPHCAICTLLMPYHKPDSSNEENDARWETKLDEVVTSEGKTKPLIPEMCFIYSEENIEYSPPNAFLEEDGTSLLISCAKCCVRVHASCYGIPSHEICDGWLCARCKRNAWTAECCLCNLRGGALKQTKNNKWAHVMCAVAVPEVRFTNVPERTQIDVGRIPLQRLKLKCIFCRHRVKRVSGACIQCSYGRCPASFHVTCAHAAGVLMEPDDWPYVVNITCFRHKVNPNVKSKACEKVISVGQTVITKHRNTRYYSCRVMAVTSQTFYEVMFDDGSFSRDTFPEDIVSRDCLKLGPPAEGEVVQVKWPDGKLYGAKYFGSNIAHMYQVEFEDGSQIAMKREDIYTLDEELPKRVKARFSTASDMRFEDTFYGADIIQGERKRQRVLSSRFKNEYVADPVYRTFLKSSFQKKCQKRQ

Cc1ccc2c(c1)N(CC(=O)NCC1CCCO1)C(=O)C(C(C)C)O2 (stereo not given)
AC50 [1]: 11.5 µM (active)

COc1ccc(C(=O)Nc2cccc(-c3cnc4ccccc4n3)c2)cc1
AC50 (Cytochrome P450 2C19): 2.24 µM (inconclusive) | AC50 (Cytochrome P450 2C9): 1.78 µM (inconclusive) | AC50 (Cytochrome P450 2D6): inconclusive

O=[N+]([O-])c1cc(/C=N/Nc2nc3ccccc3[nH]2)c(O)cc1O
EC50 [2]: > 150 µM (inactive) | EC50 [3]: 9.68 µM (inconclusive) | EC50 [4]: 11.2 µM (active) | EC50 [5]: 3.81 µM (active) | EC50 [6]: 2.33 µM (active) | IC50 [7]: 125 µM (active) | IC50 [8]: 6.08 µM (active) | AC50 [1]: 3.07 µM (active) | AC50 [9]: 4.22 µM (active) | EC50 (Protein RecA): 6.73 µM (active) | AC50 (INS1): 0.483 µM (active) | AC50 (Caspase-6): 5.37 µM (active)

Nc1nonc1-n1nnc(C(=O)N/N=C/c2cc(Br)ccc2O)c1CSC1=NCCS1
EC50 [2]: 5.49 µM (active) | EC50 (cells [10]): 12.6 µM (active) | EC50 [6]: 0.299 µM (active) | EC50 (cells [11]): > 350 µM (not active) | IC50 (Exodeoxyribonuclease V): > 119 µM (inactive) | IC50 [12]: > 119 µM (inactive) | AC50 (INS1): 0.567 µM (active) | IC50 (Galanin receptor type 3): 1.24 µM (active) | EC50 (cells [13]): > 29.9 µM (inactive)

CCc1ccc(N2CC(C(=O)N/N=C/c3cccc([N+](=O)[O-])c3)CC2=O)cc1 (stereo not given)
AC50 (Cytochrome P450 2C19): 0.316 µM (inconclusive) | AC50 (Cytochrome P450 1A2): 3.16 µM (inconclusive) | AC50 (Cytochrome P450 2D6): inconclusive

CCCCNC1=CC(=O)C(=O)c2ccccc21
EC50 [14]: > 50 µM (active) | IC50 (Exodeoxyribonuclease V): > 119 µM (inactive) | IC50 [12]: > 39.5 µM (inactive) | AC50 [9]: 0.575 µM (active) | IC50 [15]: 6.49 µM (active) | EC50 (Protein RecA): 0.669 µM (active) | AC50 (INS1): 1.78 µM (active)
